The numbers were not newly measured in US6569404B1, “Phase shift colloids as ultrasound contrast agents” (priority 1993, dated 2003), which cites them from elsewhere.

The conditions of this data set: cited from earlier work.
Setting [1] is: Chemical List of low boiling liquids, Example 45.
Setting [2] is: boiling point under standard pressure conditions, chemical list arranged by total atoms.
The mark [3] stands for this setting: dispersed phase of emulsions of Example 18.

Structures are written as SMILES. Where two headings read alike, the source gives them in different places.

With `CP(C)NP(C)C` [bis(Dimethyl phosphino) amine], the “Boiling Point” value under setting [1] is on record as 33.5 degrees Celcius.

As to `CC1CCC1` [methyl-cyclobutane], the “Boiling Point” value under setting [2] is given as 36 degrees Celcius.

Consider `O=C(C(F)(F)F)C(F)(F)Br` [bromo-pentafluoro-acetone], for which the “Boiling Point” value under setting [2] is given as 31 degrees Celcius.

Turning to `FC(F)(F)C(F)(F)C(F)(F)C(F)(F)F` [decafluoro-butane], the “Boiling Point” value under setting [2] is reported as −1.7 degrees Celcius.

As for `CCOC` [Ethyl methyl ether], the “Boiling Point” value under setting [1] is given as 10.8 degrees Celcius.

Take `FC(F)(F)C(F)(F)C(F)(F)C(F)(F)C(F)(F)C(F)(F)C(F)(F)C(F)(F)F` [Perfluorooctane, reference compound]: the “Boiling Point” value under setting [3] was 98 °C.

Regarding `C=CC=C` [1,3-Butadiene], under setting [1], the “Boiling Point” value is listed as −4.4 degrees Celcius.

As for `FC1=C(F)C(F)(F)C1(F)F` [Cyclobutene, perfluoro], the “Boiling Point” value under setting [1] was 3.0 degrees Celcius.

In the case of `F[C](F)(F)[Ge]([C](F)(F)F)([C](F)(F)F)[C](F)(F)F` [Tetrakis(trifluoromethyl) germane], the “Boiling Point” value under setting [2] was 31.7 degrees Celcius.

Consider `O=C(C(F)(F)F)C(F)(F)[N+](=O)[O-]` [Pentafluoronitroacetone], for which the “Boiling Point” value under setting [2] was 32.6 degrees Celcius.

For the compound `CCC1CC1` [ethyl-cyclopropane], under setting [2], the “Boiling Point” value was 35.8 degrees Celcius.

As to `CCON=O` [Ethyl nitrite], under setting [1], the “Boiling Point” value is recorded as 16.0 degrees Celcius.

For `C=C=CC` [1,2-Butadiene], the “Boiling Point” value under setting [1] was 10.8 degrees Celcius.

Take `O=NC(F)(F)C(F)(F)C(F)(F)F` [Propane, heptafluoro-1-nitrose]: the “Boiling Point” value under setting [1] is −12.0 degrees Celcius.

For `FN(F)C(F)(F)C(F)(F)F` [Ethyl amine, perfluoro], the “Boiling Point” value under setting [1] is reported as −35.0 degrees Celcius.

As for `C=C=C` [Allene], under setting [1], the “Boiling Point” value is on record as −34.5 degrees Celcius.

In the case of `FC(Cl)Cl` [Methane, dichloro-fluoro], under setting [1], the “Boiling Point” value is recorded as 9.0 degrees Celcius.

`[N]=O` [Nitric oxide]: the “Boiling Point” value under setting [1] was −151.6 degrees Celcius.

As to `FC(F)(F)F` [Methane, tetrafluoro], the “Boiling Point” value under setting [1] is recorded as −129.0 degrees Celcius.

On to `FC(F)(F)Br` [Methane, bromo-trifluoro], for which the “Boiling Point” value under setting [1] was −57.9 degrees Celcius.

With `CI` [Methane, iodo-], the “Boiling Point” value under setting [1] is 42.4 degrees Celcius.

Take `CC(C)(C)C` [Neopentane]: the “Boiling Point” value under setting [1] is recorded as 9.5 degrees Celcius.

For `F[C](F)(F)[Ge]([Cl])([C](F)(F)F)[C](F)(F)F` [Tris-(trifluoromethyl)-germaniumchloride], the “Boiling Point” value under setting [2] is 37 degrees Celcius.

For the compound `CCCCON=O` [Butyl nitrite], the “Boiling Point” value under setting [1] is reported as −77.8 degrees Celcius.

As to `C=COC=C` [Vinyl ether], the “Boiling Point” value under setting [1] is on record as 28.0 degrees Celcius.

As to `CCNC` [Ethyl methyl amine], the “Boiling Point” value under setting [1] is reported as 36.7 degrees Celcius.

For `FC(F)(F)C(F)(F)C(F)(F)C(F)(F)F` [Decaflurobutane], the “Boiling Point” value is, setting by setting: under setting [1], 4.0 degrees Celcius; under setting [3], −5.8 °C.

Consider `FC(Cl)Br` (stereo not drawn) [Methane, bromo-chloro-fluoro], for which the “Boiling Point” value under setting [1] is given as 36.0 degrees Celcius.

`FC(F)=C(F)C(F)=C(F)F` [1,3-Butadiene, hexafluoro]: the “Boiling Point” value under setting [1] is given as 6.0 degrees Celcius.

With `CC[C@H](C)CF` [(−)(S)-1-fluoro-2-methyl-butane], the “Boiling Point” value under setting [2] is listed as 14.1 degrees Celcius.

Take `CC#CC` [Example 2-Butyne, 2-Butyne]: the “Boiling Point” value under setting [1] is 27.0 degrees Celcius.

`CCC(F)(F)F` [1,1,1-trifluoro propane]: under setting [2], the “Boiling Point” value was −13 degrees Celcius.

`FC(F)(Cl)Cl` [Methane, dichloro difluoro]: under setting [1], the “Boiling Point” value is listed as −29.8 degrees Celcius.

Take `FC(F)(Br)Br` [Methane, dibromo difluoro]: the “Boiling Point” value under setting [1] is given as 24.5 degrees Celcius.

Turning to `CCC1CC1` [Cyclopropane, ethyl], under setting [1], the “Boiling Point” value is on record as 34.5 degrees Celcius.
